In paper PMC12256323, “Crustacean methyl farnesoate–binding protein is an insect juvenile hormone–binding protein homolog that inhibits molting” (The Journal of Biological Chemistry, 2025):

Assays:
[1] = target: T1, r-LvMFBP (XP_027209752.1; methyl farnesoate-binding protein, MFBP); assay: isothermal titration calorimetry; set-up: species or system Penaeus vannamei; settings: 20 uM protein, 200 uM ligand, 20 mM Tris-HCl pH 7.5, 30 C
T1 construct: recombinant, E. coli BL21-T1R, HisTALON (His-tag) purified; precursor 215 aa with 16 aa signal peptide, mature 199 aa

[2] = target: T1, r-LvMFBP (XP_027209752.1; methyl farnesoate-binding protein, MFBP); assay: isothermal titration calorimetry (also surface plasmon resonance); set-up: species or system Penaeus vannamei; settings: ITC: 20 uM protein, 200 uM ligand, 20 mM Tris-HCl pH 7.5, 30 C; SPR: immobilized protein, PBST pH 7.4

SMILES	Kd [1]	Kd [2]
COC(C)(C)CCCC(C)C/C=C/C(C)=C/C(=O)OC(C)C (stereo not drawn) [Met, methoprene]	34.7 µM	
COC(=O)/C=C(\C)CC/C=C(\C)CCC=C(C)C [MF, methyl farnesoate]		0.666 µM
CC(C)=CCC/C(C)=C/CC/C(C)=C/C(=O)O [FA, farnesoic acid]	630 µM	
